From patent publication US9267116B2, “Amino acid dehydrogenase, and process for producing L-amino acid, 2-oxo acid or D-amino acid” (KANEKA CORPORATION, priority 2008, dated 2016)

Key:
[1] = test system: Rhodococcus maris-derived phenylalanine dehydrogenase; details: cited from earlier work
amino acid dehydrogenase = experiment: Substrate specificity of the purified amino acid dehydrogenase (reductive amination of 2-oxo acids); format: biochemical, Rhodococcus qingshengii strain KNK2108; details: activity for phenylpyruvic acid = 100%; 30° C., pH 9.0; naphthylpyruvic and indolepyruvic acid by HPLC of the product formed in 30 minutes
Procedure: In the embodiments, the amino acid dehydrogenase activity of the polypeptide can be measured, for example, based on the rate of decline in the absorbance at a wavelength of 340 nm when 1.2 mL of 0.5 M NH3/NH4Cl buffer (pH 9.0), 0.2 mL of 0.1 M sodium carbonate buffer (pH 9.0) containing 3 mM NADH coenzyme, and 0.1 mL of an appropriately diluted enzyme solution are added to 1.5 mL of 0.1 M sodium carbonate buffer (pH 9.0) containing 10 mM phenylpyruvic acid as substrate and a reaction is run for 1 minute at 30° C. In the embodiments, the amino acid dehydrogenase activity was measured using this method unless indicated otherwise.
The activity of the amino acid dehydrogenase was measured based on the rate of decline in the absorbance at a wavelength of 340 nm when 1.2 mL of 0.5 M NH3/NH4Cl buffer (pH 9.0), 0.2 mL of 0.1 M sodium carbonate buffer (pH 9.0) that contained 3 mM NADH coenzyme, and 0.1 mL of the appropriately diluted enzyme solution were added to 1.5 mL of 0.1 M sodium carbonate buffer (pH 9.0) that contained 10 mM phenylpyruvic acid substrate and a reaction was carried out for 1 minute at 30° C. 1 unit is defined here as the quantity of enzyme that consumed 1 μmol NADH in 1 minute. The protein was quantified by the Bradford method using BSA as the reference protein.
The substrate specificity of the purified amino acid dehydrogenase was investigated. The enzyme activity was measured by using each substrate in place of the phenylpyruvic acid substrate in the procedure previously described for measuring the enzyme activity. In the case of the enzyme activity for naphthylpyruvic acid, 100 μL of the appropriately diluted enzyme solution was added to 100 μL of 0.1 M sodium carbonate buffer (pH 9.0) that contained 1.0 mg naphthylpyruvic acid, 12.3 mg ammonium sulfate, and 6.1 mg NADH and the increment in the 2-naphthylalanine produced in 30 minutes at 30° C. was determined by quantitation by HPLC. The HPLC analysis was run using the following: column: COSMOSIL 5C18-ARII (4.6 mm×250 mm, Nacalai Tesque, Inc.), eluent: 10 mM potassium phosphate buffer (pH 2.0)/acetonitrile=5/1, flow rate: 1.0 mL/min, column temperature: 40° C., detection: 210 nm. Here, 1 unit is defined as the quantity of enzyme that produces 1 μmol 2-naphthylalanine in 1 minute. In the case of the enzyme activity for indolepyruvic acid, 100 μL of the appropriately diluted enzyme solution was added to 100 μL of 0.1 M sodium carbonate buffer (pH 9.0) that contained 2.0 mg indolepyruvic acid, 26.0 mg ammonium sulfate, and 7.6 mg NADH and the increment in the L-tryptophan produced in 30 minutes at 30° C. was determined by quantitation by HPLC. The HPLC analysis was run using the following: column: CROWNPAK CR—(4.6 mm×150 mm, Daicel Chemical Industries, Ltd.), eluent: aqueous HClO4 (pH 2.0), flow rate: 1.0 mL/min, column temperature: 30° C., detection: 210 nm. Here, 1 unit is defined as the quantity of enzyme that produces 1 μmol L-tryptophan in 1 minute.

[2] = target: Bacillus sphaericus-derived phenylalanine dehydrogenase (Lysinibacillus sphaericus, UniProt P23307); details: cited from earlier work
Sequence of Bacillus sphaericus-derived phenylalanine dehydrogenase (P23307 whole entry): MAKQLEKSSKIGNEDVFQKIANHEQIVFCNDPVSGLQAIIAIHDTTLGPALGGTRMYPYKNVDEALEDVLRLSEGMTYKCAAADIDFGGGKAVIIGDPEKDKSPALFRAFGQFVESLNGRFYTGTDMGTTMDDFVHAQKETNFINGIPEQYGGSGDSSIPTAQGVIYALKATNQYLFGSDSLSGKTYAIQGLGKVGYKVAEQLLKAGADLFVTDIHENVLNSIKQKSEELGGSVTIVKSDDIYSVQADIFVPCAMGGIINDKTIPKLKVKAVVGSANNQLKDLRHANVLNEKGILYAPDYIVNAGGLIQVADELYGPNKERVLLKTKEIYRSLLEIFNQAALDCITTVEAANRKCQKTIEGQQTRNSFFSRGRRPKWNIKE

[3] = target: T1, Sporosarcina ureae-derived phenylalanine dehydrogenase (Sporosarcina ureae, UniProt P97014); details: cited from earlier work
T1 sequence (P97014 1-379): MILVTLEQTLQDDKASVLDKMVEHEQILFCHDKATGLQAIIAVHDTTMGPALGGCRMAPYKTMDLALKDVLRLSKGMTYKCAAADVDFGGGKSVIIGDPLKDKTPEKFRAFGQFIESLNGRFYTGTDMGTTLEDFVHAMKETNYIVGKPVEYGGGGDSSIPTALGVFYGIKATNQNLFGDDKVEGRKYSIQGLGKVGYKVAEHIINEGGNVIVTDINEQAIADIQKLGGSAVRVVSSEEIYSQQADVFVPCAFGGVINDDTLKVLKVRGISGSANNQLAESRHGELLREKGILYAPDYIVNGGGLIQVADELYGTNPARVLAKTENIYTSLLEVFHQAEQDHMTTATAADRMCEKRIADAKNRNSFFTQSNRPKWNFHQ

[4] = target: Rhodococcus sp.-derived phenylalanine dehydrogenase (Rhodococcus sp, UniProt Q59771); details: cited from earlier work
Sequence of Rhodococcus sp.-derived phenylalanine dehydrogenase (Q59771 whole entry): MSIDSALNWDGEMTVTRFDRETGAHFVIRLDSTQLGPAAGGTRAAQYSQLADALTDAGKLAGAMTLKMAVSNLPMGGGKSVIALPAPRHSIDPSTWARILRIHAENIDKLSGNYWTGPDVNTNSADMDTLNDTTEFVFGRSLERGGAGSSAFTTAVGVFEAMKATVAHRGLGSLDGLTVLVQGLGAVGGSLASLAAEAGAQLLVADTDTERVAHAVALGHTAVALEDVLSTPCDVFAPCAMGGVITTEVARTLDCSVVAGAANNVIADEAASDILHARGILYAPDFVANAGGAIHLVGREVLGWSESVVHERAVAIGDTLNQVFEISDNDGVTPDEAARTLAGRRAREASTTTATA

[5] = target: Thermoactinomyces intermedius-derived phenylalanine dehydrogenase (Thermoactinomyces intermedius, UniProt P22823); details: cited from earlier work
Sequence of Thermoactinomyces intermedius-derived phenylalanine dehydrogenase (P22823 whole entry): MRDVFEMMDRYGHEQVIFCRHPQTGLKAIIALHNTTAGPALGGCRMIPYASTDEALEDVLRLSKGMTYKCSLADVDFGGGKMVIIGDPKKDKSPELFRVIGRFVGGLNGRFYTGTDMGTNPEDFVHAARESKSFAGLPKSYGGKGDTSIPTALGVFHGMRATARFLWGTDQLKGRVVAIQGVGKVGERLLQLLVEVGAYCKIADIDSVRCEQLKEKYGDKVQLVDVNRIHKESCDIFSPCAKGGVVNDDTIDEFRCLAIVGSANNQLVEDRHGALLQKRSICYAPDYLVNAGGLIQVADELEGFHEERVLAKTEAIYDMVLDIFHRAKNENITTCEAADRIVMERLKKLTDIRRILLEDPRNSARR

[6] = test system: Microbacterium sp.-derived phenylalanine dehydrogenase; details: cited from earlier work

| Compound | Relative activity (%) (amino acid dehydrogenase) | enzymatic activity taking the enzymatic activity for phenylpyruvic acid to be 100 [2] | also measured |
| --- | --- | --- | --- |
| CSCCC(=O)C(=O)O [2-Oxo-4-(methylthio)butanoic acid] | 34.6 |  | enzymatic activity taking the enzymatic activity for phenylpyruvic acid to be 100 [1]: 9 |
| O=C(O)C(=O)Cc1c[nH]c2ccccc12 [Indolepyruvic acid] | 19.7 | 0.39 | enzymatic activity taking the enzymatic activity for phenylpyruvic acid to be 100 [1]: 5; enzymatic activity taking the enzymatic activity for phenylpyruvic acid to be 100 [3]: 0.73; enzymatic activity taking the enzymatic activity for phenylpyruvic acid to be 100 [4]: 3 |
| O=C(O)C(=O)Cc1ccccc1 [Phenylpyruvic acid] | 100.0 |  |  |
| O=C(O)C(=O)Cc1ccc(O)cc1 [4-Hydroxyphenylpyruvic acid] | 96.3 |  | enzymatic activity taking the enzymatic activity for phenylpyruvic acid to be 100 [4]: 5; enzymatic activity taking the enzymatic activity for phenylpyruvic acid to be 100 [5]: 0 |
| Naphthylpyruvic acid | 38.8 | 0.46 |  |
| O=C(O)C(=O)CCc1ccccc1 [Homophenylpyruvic acid] | 19.1 | 3.4 | enzymatic activity taking the enzymatic activity for phenylpyruvic acid to be 100 [6]: 0.1 |
| CC(C)CC(=O)C(=O)O [2-Oxo-4-methylvaleric acid] | 3.5 |  |  |
